Test results: patent US10022356B2, “Compounds for treatment of cancer” (UNIVERSITY OF TENNESSEE RESEARCH FOUNDATION, priority 2013, dated 2018)

Assays:
B16-F1 = assay: SRB cell culture cytotoxicity assay, B16-F1; format: cell-based, mouse; settings: 48 h
WM164 = assay: SRB cell culture cytotoxicity assay, WM-164; format: cell-based, human; settings: 48 h
DU145/TXR = assay: Growth inhibition, DU145/TXR; format: cell-based; settings: RABI, Table 10A; read-out: DU145/TXR (nM), inhibitory effects
A375 = assay: SRB cell culture cytotoxicity assay, A375; format: cell-based, human; settings: Tables 11C, 11D; read-out: IC50 ± SEM (μm), A375
OVCAR-8 = assay: Growth inhibition, OVCAR-8; format: cell-based; settings: Homo sapiens, OVCAR-8, read-out: IC50 (nM), OVCAR-8
B16-F1 melanoma cells = assay: B16-F1 melanoma colony formation assay in soft agar; format: cell-based, mouse; settings: 14 days; tested 20, 100, 500 nM
Protocol: B16-F1 melanoma cells were plated at a colony-forming density (2000 cells per well on six-well plates) on top of 0.8% base agar. Cells were grown in 0.4% agar together with DMEM medium supplemented with fetal bovine serum and an antibiotic-antimycotic solution at 37° C. in an atmosphere of 95% air and 5% CO2. […] Compounds were added to the media from 1 mM DMSO stock solutions, and a corresponding dilution of DMSO was used as control. Cells were grown for 14 days. Plates were photographed, and the number of colonies was measured by Artek 880 Automated Colony Counter (Artek Systems Corporation, Farmingdale, N.Y.).

B16-F1 melanoma = B16-F1 melanoma tumors in C57/BL mice; format: in vivo; settings: after 13 days of treatment, C57BL/6 mice
Protocol: C57BL/6 mice bearing B16-F1 melanoma allograft (n=5 per group). Each mouse received 0.5×10^6 cells by s.c. injection into the flank. 30 μL i.p. daily treatments were started when tumor size reached ˜100 mm^3. […] Control, vehicle solution only; points, means; bars, SD. DTIC, (5-(3,3,-dimethyl-1-triazenyl)-imidazole-4-carboxamide, dacarbazine.
Female C57/BL mice, age 4-6 weeks, were purchased from Harlan Laboratories (Harlan Laboratories Inc., Indianapolis, Ind.). The animal housing met the Association for Assessment and Accreditation and Laboratory Animal Care specifications. All of the procedures were conducted in accordance with guidelines of our Institutional Animal Care and Use Committee.
The cell suspension (100 μL) was injected subcutaneously in the right dorsal flank of each mouse. When tumor size reached about 100-150 mm^3, about 7 days after cell inoculation, all mice bearing tumors were divided into control and treatment groups based on tumor size (n=5 per group). Each group had similar average tumor size. Mice in control groups (negative control) were injected intraperitoneally with 50 μL vehicle solution only or DTIC at 60 mg/kg (positive control) once daily. Tumor volume was measured every 2 days with a traceable electronic digital caliper (Fisher Scientific, Inc., Pittsburgh, Pa.) and calculated using the formula a×b^2×0.5, where a and b represented the larger and smaller diameters, respectively. Tumor volume was expressed in cubic millimeters. Data were expressed as mean±SE for each group and plotted as a function of time. […] Animal activity and average body weight of each group were monitored during the entire experiment period to assess compound toxicity. At the end of treatment, all mice were euthanized by CO2 followed by cervical dislocation, and tumors were harvested for further studies.

[1] = test system: A375 human melanoma xenograft; assay: A375 human melanoma xenograft in SHO nude mice; format: in vivo; settings: 25 mg/kg; after 31 days of treatment
Protocol: FIG. 19 depicts in vivo study of ABI compounds. […] C57BL/6 mice bearing B16-F1 melanoma allograft (n=5 per group). Each mouse received 0.5×10^6 cells by s.c. injection into the flank. 30 μL i.p. daily treatments were started when tumor size reached ˜100 mm^3. […] SHO nude mice bearing an A375 human melanoma xenograft (n=5 per group). Each mouse received 2.5×10^6 cells by s.c. injection into the flank. 30 μL i.p. daily treatments were started when the tumor size reached ˜150 mm^3. Control, vehicle solution only; points, means; bars, SD. DTIC, (5-(3,3,-dimethyl-1-triazenyl)-imidazole-4-carboxamide, dacarbazine.
Average body weight of all groups increased slightly throughout the experiment period.

[2] = test system: metastasis of melanoma to the lungs; assay: Melanoma lung metastasis model in mice; format: in vivo; settings: i.p. injection 5 days per week for 2 weeks (FIG. 28)
Excerpt: Panel A: Representative photos of lungs with melanoma nodules (black dots, n=8 per group). Treatment was i.p. injection 5 days per week for 2 weeks. Panel B: Number of melanoma nodules on each lung. […] Panel C: Mouse body weight changes during the experiment. Points: means; bars: SD. Control: vehicle solution only.

LNCaP = assay: SRB cytotoxicity assay, LNCaP; format: cell-based, human; settings: Reversed aryl benzoyl imidazole (RABI), Tables 10A/10B; read-out: LNCaP (nM), inhibitory effects
Du 145 = assay: SRB cytotoxicity assay, Du 145; format: cell-based, human; settings: RABI, Tables 10A/10B; read-out: DU145 (nM), inhibitory effects
PPC-1 = assay: SRB cytotoxicity assay, PPC-1; format: cell-based, human; settings: RABI, Tables 10A/10B; read-out: PPC1 (nM), inhibitory effects
MDA-MB-435 = assay: SRB growth inhibition, MDA-MB-435 (sensitive parent melanoma line); format: cell-based, human; settings: Tables 11C, 11D; read-out: IC50 ± SEM (μm), MDA-MB-435
MDA-MB-435/LCC6MDR1 = assay: SRB growth inhibition, multidrug-resistant MDA-MB-435/LCC6MDR1; format: cell-based; settings: Tables 11C, 11D; read-out: IC50 ± SEM (μm), MDA-MB-435/LCC6MDR1
PC-3 = assay: SRB cytotoxicity assay, PC-3; settings: read-out: PC3 (nM), inhibitory effects; RABI, Tables 10A/10B
[3] = ICR, Sprague-Dawley, beagle, mouse, in vivo
Protocol: All compounds (10 mg/kg) were dissolved in DMSO/PEG300 (1/9) and administered by a single intravenously (i.v.) injection (50 μL) into the tail vein.

in vivo = settings: nude, mouse, 20 mg/kg
[4] = Metabolic stability in human liver microsomes; settings: Table 13A; mean from duplicate studies

SMILES: COc1cc(C(=O)c2c[nH]c(-c3ccc(O)cc3)n2)cc(O)c1OC [12kc]
- IC50 (B16-F1): 5600 nM
- IC50 (WM164): 6400 nM

SMILES: COc1cc(C(=O)c2nc(-c3ccc(Cl)cc3)c[nH]2)cc(OC)c1OC [70c]
- IC50 (DU145/TXR): 121 nM

SMILES: COc1cc(Cc2nc(-c3ccccc3)c[nH]2)cc(OC)c1OC [102a]
- IC50 (A375): 10.2 ± 0.392 µM

SMILES: O=C(c1ccc(F)cc1)c1c[nH]c(-c2ccc(Cl)cc2)n1 [12fb, (2-(4-chlorophenyl)-1H-imidazol-4-yl)(4-fluorophenyl)methanone]
- IC50 (OVCAR-8): 47 nM
- concentration showing effective inhibition of B16-F1 colony formation (B16-F1 melanoma cells): 100 nM
- melanoma tumor growth inhibition (TGI value) (B16-F1 melanoma; 15 mg/kg): 32%
- melanoma tumor growth inhibition (TGI value) (B16-F1 melanoma; 45 mg/kg): 82%
- melanoma tumor growth inhibition (TGI value) [1]: 69%
- metastasis of melanoma to the lungs [2]: inhibition

SMILES: COc1cc(-c2c[nH]c(C(=O)c3ccccc3)n2)cc(OC)c1OC [70x]
- IC50 (LNCaP): 195 nM
- IC50 (Du 145): 1300 nM
- IC50 (PPC-1): 408 nM
- IC50 (MDA-MB-435): 4.61 µM
- IC50 (MDA-MB-435/LCC6MDR1): 5.77 µM
- IC50 (PC-3): 632 nM

SMILES: COc1cc(C(=O)c2csc(Nc3ccc4[nH]ccc4c3)n2)cc(OC)c1OC [compound 55]
- oral bioavailability rates among three species [3]: 24-36%
- Kp (in vivo): 3.2
- half-life in human liver microsomes [4]: 28 min
